In patent publication US6410219B1 (priority 1994, dated 2002):
Structures can show the parent of a compound that is named as a salt.

Columns and labels:
R-17 = type: cell-based, bacteriophage R17
CA-HIV = type: cell-based
R17 [1] = type: cell-based, bacteriophage R17
red blood cells [2] = assay: IgG binding to red blood cell surfaces (Example 10); type: cell-based; settings: 10-300 μg/ml
Description: Potassium levels on remaining samples were measured and the samples were stored at 4° C. Potassium measurements were repeated daily for one week or until significant differences were observed. Extracellular potassium data appears in Table 15, and FIG. 6. IgG binding in the samples was measured using Baxter Unival Anti-Human Globulin Anti-IgG for Direct Antiglobulin Test and Baxter Coornbs control Cells for Quality Control of Anti-Human Globulin Test (both available from Baxter Healthcare Corporation, Deerfield, Ill.). The results of IgG Binding as measured by FACScan™ (Becton Dickinson, Mountain View, Calif.) appear in Tables 15 and 16: […]

red blood cells [3] = test system: red blood cells
red blood cells [4] = settings: mouse, in vivo
red blood cells [5] = settings: Swiss Webster, mouse, in vivo
R17 [6] = type: cell-based, bacteriophage R17; remark: listed apart in the source

COc1c2occc2c(CN(C)CO)c2ccc(=O)oc12
Dose for 5 log kill R-17 (R-17): >75 μM
Logs Virus Killed at Fixed Drug Dose, R-17 (R-17): <0.5

4′-[3-(Bis-2-chloroethyl)amino-1-propylaminomethyl]-4,5′,8-trimethylpsoralen
Dose for 5 log kill R-17 (R-17): ≦2 μM
Logs Virus Killed at Fixed Drug Dose, CA-HIV (CA-HIV): 0.4

4′-[4-(Bis-2-chloroethyl)amino-1-butylaminomethyl]-4,5′,8-trimethylpsoralen [Compound S-210]
Logs Virus Killed at Fixed Drug Dose, CA-HIV (CA-HIV): 0.8

5′-[4-(Bis-2chloroethyl)amino-1-butylaminomethyl]-4,4′, 8-trimethylpsoralen
Dose for 5 log kill R-17 (R-17): ≦2 μM
Logs Virus Killed at Fixed Drug Dose, R-17 (R-17): >6
Logs Virus Killed at Fixed Drug Dose, CA-HIV (CA-HIV): 0.7

O=C(O)CCCc1ccc(N(CCCl)CCCl)cc1 [Chlorambucil, chlorambucil]
R17 inactivation (R17 [1]): ≤ 0.4 logs
IgG binding of red cells (red blood cells [2]): did not alter
potassium leakage of red cells (red blood cells [3]): did not alter

CCN(CCCl)CCCNc1c2ccc(Cl)cc2nc2ccc(OC)cc12 [ICR-170, N-(2-chloroethyl)-N-ethyl-N′-(6-chloro-2-methoxy-9-acridinyl)-1,3-propanediamine dihydrochloride]
% RECOVERY, LOW (red blood cells [4]; Balb/c): 93.1%
% RECOVERY, HIGH (red blood cells [4]): 90.4%
LOSS PER DAY (red blood cells [5]): 2.71%
RECOVERY (red blood cells [5]): 86.0 ± 6.6

CCN(CC)CCCC(C)Nc1c2ccc(Cl)cc2nc2ccc(OC)cc12 (stereo not shown) [Q, quinicrine]
light-dependent kill of R17 (R17 [6]): no light-dependent kill
